Measurements from patent publication US12083089B2, “Compositions and methods for stimulating ventilatory and/or respiratory drive” (CASE WESTERN RESERVE UNIVERSITY, priority 2015, dated 2024).
Entries after “also recorded” stand apart in the source; their conditions may differ.

Tests used:
humans = details: oral NAC three times daily, exposed acutely to isocapnic hypoxia; cited from earlier work
freely moving rats [1] = experiment: Hot-plate (hind-paw withdrawal) latency (HPL), Hargreaves's test, morphine 10 mg/kg; type: in vivo, rat
freely moving rats [2] = experiment: Tail-flick latency (TFL) test; type: in vivo, rat
[3] = tested on: freely moving adult male Sprague-Dawley rats; experiment: Whole-body plethysmography of ventilatory parameters in morphine-treated rats
Protocol: Permissions, rats, surgical procedures and blinding of protocols. All studies were carried out in accordance with the NIH Guide for the Care and Use of Laboratory Animals (NIH Publication No. […]) revised in 1996. The protocols were approved by the Animal Care and Use Committees of the University of Virginia, Case Western Reserve University and Loma Linda University. In addition, all studies were carried out in compliance with the ARRIVE (Animal Research: Reporting of In Vivo Experiments) guidelines. Adult male Sprague-Dawley rats (Harlan, Madison, WI, USA) were implanted with jugular vein catheters under 2% isoflurane anesthesia and some rats received femoral arterial catheters. The rats were allowed at least four days to recover from surgery before use. All arterial catheters were flushed daily with heparin solution (50 units of heparin in phosphate-buffered saline at 0.1 M, pH 7.4). All catheters were flushed with phosphate-buffered saline (0.1 M, pH 7.4) approximately four hours before commencement of the experiments. All studies were performed in a quiet laboratory with relative humidity of 49±2% and room temperature of 21.4±0.2° C. […] Also, please note that the antinociception and ventilatory studies were done in separate groups of rats so as to not complicate the respiratory measurements. The recording (plethysmography, antinociception) sessions and the arterial blood gas assays were done by a particular investigator who administered the opioid, vehicle or test drug such as d-cystine diME. The syringes containing the vehicle or test drug were made up by another investigator, such that the investigator running the actual experiment was blinded to the treatment protocol. In every case, the data files resulting from a particular study were first collated and analyzed by another investigator in the group.
Ventilatory parameters were recorded in freely moving rats by whole body plethysmography (PLY3223; Data Sciences International, St. Paul, MN). The rats were placed in individual chambers and given 60 min to acclimatize to allow true resting ventilatory parameters to be established. […] The rats received another injection of vehicle or 1-NACme (500 μmol/kg, IV) 15 min later and ventilatory parameters were recorded for a further 60 min.
The provided software (Fine Pointe, BUXCO) constantly corrected digitized values for changes in chamber temperature and humidity. Pressure changes associated with the respiratory waveforms were then converted to volumes (i.e., TV, PIF and PEF) using the algorithm of Epstein and colleagues. Specifically, factoring in chamber temperature and humidity, the cycle analyzers filtered the acquired signals, and BUXCO algorithms (Fine Pointe) generated an array of box flow data that identified a waveform segment as an acceptable breath. From that data vector, the minimum and maximum values were determined. Flows at this point were considered to be “box flow” signals.
The recorded data (1 min bins) and derived parameters, Vt/Ti and Response Area (cumulative percent changes from pre-values) were taken for statistical analyses. The pre-drug 1 min bins excluded occasional marked deviations from resting due to movements or scratching by the rats. These exclusions ensured accurate determinations of baseline parameters. The data are presented as mean±SEM. All data unless other-wise stated (see immediately below) were analyzed by one-way or two-way analysis of variance followed by Student's modified t test with Bonferroni corrections for multiple comparisons between means using the error mean square terms from each ANOVA. A value of P<0.05 denoted the initial level of statistical significance that was modified according to the number of comparisons between means.

conscious rats = experiment: Morphine-induced analgesia (paw withdrawal latency assay), Example 1; type: in vivo, rat; details: 500 μmol/kg i.v.; 10 mg/kg of morphine; FIG. 13
rats = experiment: Hemodynamics (preliminary toxicology); type: in vivo, rat; details: 500 μmol/kg, i.v.
Excerpt: FIGS. 11(A-C) illustrate plots showing the effects of test agents (500 μmol/kg, i.v.) on hemodynamic variables. Data are presented mean±SEM (n=8 rats per group).

freely moving rats [4] = experiment: Arterial blood-gas chemistry and A-a gradient in morphine-treated rats; type: in vivo, rat
adult male rats [5] = experiment: Hargreaves Hind-paw Latency Test, morphine 1 mg/kg; type: in vivo, rat; details: for effect on the antinociception actions of morphine (Hargreaves): 500 μmol/kg IV with morphine sulfate 1.0 mg/kg IV; for thermal nociception (Hargreaves Testing) when given alone: 500 μmol/kg IV, tested 20 to 30 min post-injection; for Hargreaves hind-paw withdrawal latency: FIG. 26 study
adult male rats [6] = experiment: Von Frey Test, morphine 1 mg/kg; type: in vivo, rat; details: for force needed to initiate hind-paw withdrawal (Von Frey): FIG. 27 study
[7] = tested on: conscious (adult male) C57 black 6 (C57BL6) mice; experiment: Ventilatory responses in conscious mice; type: in vivo, mouse
[8] = tested on: conscious male adult Sprague-Dawley rats; experiment: Plethysmographic ventilatory responses to test compounds in conscious rats; type: in vivo, rat
[9] = 500 μmol/kg IV, before morphine
[10] = drug 500 μmol/kg IV 20 min before morphine 10 mg/kg IV
[11] = 500 μmol/kg IV in morphine (10 mg/kg IV)-treated rats, FIG. 21
[12] = freely moving rats, morphine 10 mg/kg IV, then d-cystine diEE 500 μmol/kg IV 15 min later

Question: With `CC(=O)N[C@@H](CS)C(=O)O` [NAC, N-acetylcysteine] as the molecule, how does the “increase in minute ventilation” value (humans) read?
Answer: The value was 24±4%.

Question: What does the source list for `CCOC(=O)[C@H](N)CSSC[C@@H](N)C(=O)OCC` [D-Cystine diEE, D-Cystine diethylester]?
Answer: HPL after the drug alone (freely moving rats [1]; [9]): transient increase; time within which the transient increase in HPL resolved (freely moving rats [1]; [9]): ≤ 15 min; antinociceptive effects of morphine (HPL) in drug-pretreated rats (freely moving rats [1]; [10]): enhanced; TFL after the drug alone (freely moving rats [2]; [9]): transient increase; time within which the transient increase in TFL resolved (freely moving rats [2]; [9]): ≤ 15 min; antinociceptive effects of morphine (TFL) in drug-pretreated rats (freely moving rats [2]; [10]): enhanced; initial peak responses: Freq, TV, MV, PIF, PEF, EF50, inspiratory and expiratory drive [3, 11]: pronounced increases; total response: Freq [3, 11]: relatively minor increase in Freq; total response: TV, MV, PIF, PEF, PEF/PIF, EF50, inspiratory and expiratory drives [3, 11]: robust sustained increases; ventilatory depressant effects of morphine incl. tidal volume/inspiratory time (Vt/Ti) ([3]; bolus 500 μmol/kg i.v. (D-CYSee 2×500 μmol/kg) after morphine 10 mg/kg i.v., conscious rats, Example 1): immediate and sustained reversal; duration of the brief increase in Freq ([3]; d-cystine diEE 500 μmol/kg IV, 15 min after morphine 10 mg/kg IV): about 5 min; changes in EF50 [3, 12]: further prompt and sustained increase; changes in PEF/PIF [3, 12]: decrease in PEF/PIF immediately upon injection; changes in expiratory drive (TV/Te) [3, 12]: substantial and sustained increase; changes in expiratory time (Te) [3, 12]: without greatly affecting Te; changes in frequency of breathing (Freq) [3, 12]: brief increase in Freq of about 5 min in duration that was followed by a gradual and sustained elevation; changes in inspiratory drive (TV/Ti) [3, 12]: noticeable but partial recovery; changes in inspiratory time (Ti) [3, 12]: brief decrease in Ti; changes in minute ventilation (MV) [3, 12]: prompt and long-lasting reversal; changes in peak expiratory flow (PEF) [3, 12]: marked increase in PEF to levels well above pre-morphine levels; changes in peak inspiratory flow (PIF) [3, 12]: prompt and relatively sustained reversal; changes in the ratio of Te/Ti [3, 12]: similarly; morphine analgesia (conscious rats): does not attenuate

Question: With `COC(=O)[C@H](N)CSSC[C@@H](N)C(=O)OC` [D-Cystine diME, D-Cystine dimethylester] as the molecule, how does the “hemodynamic responses (FIG. 11)” value (rats) read?
Answer: The value was “minimal responses; also recorded: did not elicit significant responses”.

Question: And the “deleterious actions of morphine on ABG chemistry and A-a gradient” value (freely moving rats [4]; bolus 500 μmol/kg i.v. after morphine 10 mg/kg i.v., Example 1)?
Answer: Its value is “reversed”.

Question: And the “changes in ABG chemistry (pH, pCO2, pO2 and sO2)” value (freely moving rats [4]; freely moving rats, morphine 10 mg/kg IV, then drug 500 μmol/kg IV 15 min later, FIG. 18)?
Answer: Its value is “reversed immediately”.

Question: What about the “changes in A-a gradient” value (freely moving rats [4]; freely moving rats, morphine 10 mg/kg IV, then drug 500 μmol/kg IV 15 min later, FIG. 19) of the same molecule?
Answer: The value was “reversed immediately”.

Question: What about the “effect on the antinociception actions of morphine (Hargreaves)” value (adult male rats [5]; listed as D-cystine diME) of the same molecule?
Answer: The value was “not different from each other”.

Question: And the “effect on the antinociception actions of morphine (Hargreaves)” value (adult male rats [5]; listed as d-cystine diME)?
Answer: The value was “neither thiolester affected”.

Question: What about the “thermal nociception (Hargreaves Testing) when given alone” value (adult male rats [5]) of the same molecule?
Answer: Its value is “not a significant difference”.

Question: And the “thermal nociception (Hargreaves Testing) when given alone” value (adult male rats [5]; listed as d-cystine diME)?
Answer: Its value is “neither d-cystine diME nor L-cystine diME affected”.

Question: And the “Hargreaves hind-paw withdrawal latency” value (adult male rats [5]; Morphine+D-Cystine diME)?
Answer: The value was 16.9 ± 1.0 s.

Question: And the “Hargreaves hind-paw withdrawal latency” value (adult male rats [5]; given alone, D-cystine diME 500 μmol/kg IV, morphine sulfate 1 mg/kg IV)?
Answer: Its value is 12.9 ± 1.0 s.

Question: And the “effect on the antinociception actions of morphine (Von Frey)” value (adult male rats [6]; 500 μmol/kg IV with morphine sulfate 1.0 mg/kg IV, listed as d-cystine diME)?
Answer: Its value is “neither thiolester affected”.

Question: And the “mechanical allodynia (Von Frey Testing) when given alone” value (adult male rats [6]; 500 μmol/kg IV, tested 20 to 30 min post-injection, listed as d-cystine diME)?
Answer: The value was “neither d-cystine diME nor L-cystine diME affected”.

Question: And the “force needed to initiate hind-paw withdrawal (Von Frey)” value (adult male rats [6]; Morphine+D-cystine diME)?
Answer: Its value is 176±5 grams.

Question: And the “force needed to initiate hind-paw withdrawal (Von Frey)” value (adult male rats [6]; given alone, D-cystine diME 500 μmol/kg IV, morphine 1 mg/kg IV)?
Answer: Its value is 144±8 grams.

Question: What about the “duration of increases in frequency of breathing, tidal volume and minute ventilation” value [7] of the same molecule?
Answer: Its value is “approximately 20 min”.

Question: And the “frequency of breathing, tidal volume and minute ventilation (response)” value ([7]; 250 mol/kg dose)?
Answer: Its value is “robust increases”.

Question: And the “immediate effects on Freq, TV or MV” value ([3]; rat, in vivo)?
Answer: The value was “minimal immediate effects”.

Question: And the “duration of increases in frequency of breathing, tidal volume and minute ventilation” value ([8]; 500 μmol/kg, i.v.)?
Answer: The value was 20 min.

Question: And the “total ventilatory responses recorded over the 30 min post-injection period (% baseline), comparison of efficacy” value ([8]; 500 μmol/kg, i.v., FIG. 2)?
Answer: The value was “most efficacious of the test compounds”.

Question: What about the “frequency of breathing, tidal volume and minute ventilation (response)” value ([8]; 500 mol/kg, i.v.) of the same molecule?
Answer: The value was “robust increases”.

Question: And the “how sustained the ventilatory effect is, compared with D-CYSee and L-CYSee” value ([8]; 500 mol/kg, i.v.)?
Answer: The value was “most sustained effect”.

Question: And the “dose-dependency of ventilatory responses” value ([8]; FIG. 3)?
Answer: The value was “clearly dose-dependent”.
